For experiment [1], the system named is Dermatophagoides farinae. Put plainly: Insecticidal activity against Dermatophagoides farinae assessed as mortality at 1 g/m'2 after 24 hr by clip method. The format is functional.
A further experiment addresses T1, Carboxypeptidase A1 (Bos taurus, UniProt P00730).
T1 sequence (P00730 whole entry): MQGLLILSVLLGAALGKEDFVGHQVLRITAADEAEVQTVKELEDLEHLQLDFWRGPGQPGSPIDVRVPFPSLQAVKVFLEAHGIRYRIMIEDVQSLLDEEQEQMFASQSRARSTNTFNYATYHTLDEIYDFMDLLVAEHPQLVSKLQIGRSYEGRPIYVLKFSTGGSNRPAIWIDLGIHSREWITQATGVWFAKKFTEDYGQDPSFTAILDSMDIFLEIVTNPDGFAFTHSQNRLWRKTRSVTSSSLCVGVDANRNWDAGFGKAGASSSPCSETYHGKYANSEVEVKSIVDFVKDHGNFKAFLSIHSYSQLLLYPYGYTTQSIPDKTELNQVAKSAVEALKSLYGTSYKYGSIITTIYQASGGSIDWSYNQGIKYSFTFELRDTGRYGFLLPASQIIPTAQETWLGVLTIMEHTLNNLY
Put plainly: Inhibition of Bos taurus (bovine) pancrease carboxypeptidase A after 15 min.

In experiment [2] the test system is Dermatophagoides farinae. Put plainly: Insecticidal activity against Dermatophagoides farinae assessed as mortality at 0.20 g/m'2 after 24 hr by clip method. The format is functional.
The subject of experiment [3] is Coptotermes formosanus. Put plainly: Insecticidal activity against Coptotermes formosanus assessed as mortality at 1 g/m'2 after 48 hr. The class given is functional.
Experiment [4] deals with Dermatophagoides farinae. The experiment is described as follows: Insecticidal activity against Dermatophagoides farinae assessed as mortality at 0.40 g/m'2 after 24 hr by clip method. The format is functional.
For experiment [5], the system named is Coptotermes formosanus. The experiment is described as follows: Insecticidal activity against Coptotermes formosanus assessed as mortality at 0.020 g/m'2 after 48 hr. The class given is functional.
Experiment [6] has as its system Coptotermes formosanus. Put plainly: Insecticidal activity against Coptotermes formosanus assessed as mortality at 0.010 g/m'2 after 48 hr. The class given is functional.
The subject of experiment [7] is Coptotermes formosanus. Put plainly: Insecticidal activity against Coptotermes formosanus assessed as mortality at 0.050 g/m'2 after 24 hr. The format is functional.
The test system of experiment [8] is Coptotermes formosanus. The experiment is described as follows: Insecticidal activity against Coptotermes formosanus assessed as mortality at 1 g/m'2 after 24 hr. The format is functional.
Experiment [9] deals with Tyrophagus putrescentiae. Put plainly: Insecticidal activity against Tyrophagus putrescentiae assessed as mortality at 0.60 g/m'2 after 24 hr by clip method. The class given is functional.
Experiment [10] has as its system Coptotermes formosanus. Put plainly: Insecticidal activity against Coptotermes formosanus assessed as mortality at 0.020 g/m'2 after 24 hr. The format is functional.
Experiment [11] deals with Dermatophagoides farinae. Put plainly: Insecticidal activity against Dermatophagoides farinae assessed as mortality at 0.03 g/m'2 after 24 hr by clip method. The format is functional.
Experiment [12] concerns Coptotermes formosanus. Put plainly: Insecticidal activity against Coptotermes formosanus assessed as mortality. The format is functional.
Experiment [13] has as its system Tyrophagus putrescentiae. Put plainly: Insecticidal activity against Tyrophagus putrescentiae assessed as mortality at 0.80 g/m'2 after 24 hr by clip method. The format is functional.
In experiment [14] the test system is Coptotermes formosanus. The experiment is described as follows: Insecticidal activity against Coptotermes formosanus assessed as mortality at 0.010 g/m'2 after 24 hr. The format is functional.
Experiment [15] concerns Dermatophagoides farinae. Put plainly: Insecticidal activity against Dermatophagoides farinae assessed as mortality at 0.80 g/m'2 after 24 hr by clip method. The format is functional.
For a further experiment, the system named is Fusarium solani. Put plainly: Antifungal activity against Fusarium solani IFO 9955 after 15 days by agar dilution method. The format is functional. Particulars: IFO 9955, 360 h.
The subject of experiment [16] is Dermatophagoides farinae. Put plainly: Insecticidal activity against Dermatophagoides farinae assessed as mortality at 0.60 g/m'2 after 24 hr by clip method. The format is functional.
The test system of experiment [17] is Tyrophagus putrescentiae. The experiment is described as follows: Insecticidal activity against Tyrophagus putrescentiae assessed as mortality at 1 g/m'2 after 24 hr by clip method. The format is functional.
For experiment [18], the system named is Coptotermes formosanus. The experiment is described as follows: Insecticidal activity against Coptotermes formosanus assessed as mortality at 0.025 g/m'2 after 48 hr. The format is functional.
In experiment [19] the test system is Dermatophagoides farinae. Put plainly: Insecticidal activity against Dermatophagoides farinae assessed as mortality at 0.30 g/m'2 after 24 hr by clip method. The class given is functional.
Experiment [20] has as its system Tyrophagus putrescentiae. Put plainly: Insecticidal activity against Tyrophagus putrescentiae assessed as mortality at 0.10 g/m'2 after 24 hr by clip method. The class given is functional.
The test system of experiment [21] is Tyrophagus putrescentiae. The experiment is described as follows: Insecticidal activity against Tyrophagus putrescentiae assessed as mortality at 0.30 g/m'2 after 24 hr by clip method. The class given is functional.
The test system of experiment [22] is Dermatophagoides farinae. Put plainly: Insecticidal activity against Dermatophagoides farinae assessed as mortality at 0.50 g/m'2 after 24 hr by clip method. The format is functional.
The test system of experiment [23] is Coptotermes formosanus. Put plainly: Insecticidal activity against Coptotermes formosanus assessed as mortality at 0.025 g/m'2 after 24 hr. The class given is functional.
The test system of experiment [24] is Dermatophagoides farinae. The experiment is described as follows: Insecticidal activity against Dermatophagoides farinae assessed as mortality at 0.025 g/m'2 after 24 hr by clip method. The format is functional.
In experiment [25] the test system is Tyrophagus putrescentiae. Put plainly: Insecticidal activity against Tyrophagus putrescentiae assessed as mortality at 0.50 g/m'2 after 24 hr by clip method. The class given is functional.

Converted amounts (≈) assume the structure as drawn.

Two compounds from ChEMBL document CHEMBL3046644, “Biological activity of tropolone” (Biol Pharm Bull, 2003) can be followed below.

Take `O=c1cccccc1O` [TROPOLONE]: the mortality in the experiment on Dermatophagoides farinae [1] was 100%; in the experiment with Dermatophagoides farinae [2] it was 95.7%; in the experiment with Coptotermes formosanus [3], 100%; in the experiment on Dermatophagoides farinae [4], 100%; in the experiment on Coptotermes formosanus [5], 57.9%; in the experiment with Coptotermes formosanus [6], 0%. The mortality with Coptotermes formosanus [7] came out at 45%; with Coptotermes formosanus [8], 100%; with Tyrophagus putrescentiae [9], 79.8%; in the experiment with Coptotermes formosanus [10], 37.5%; in the experiment with Dermatophagoides farinae [11], 0%; with Tyrophagus putrescentiae [13] it was 100%. In addition, the mortality with Coptotermes formosanus [14] is 0%; in the experiment on Dermatophagoides farinae [15], 100%; in the experiment with Dermatophagoides farinae [16], 100%; in the experiment on Tyrophagus putrescentiae [17] it was 100%. Also, at Carboxypeptidase A1, the IC50 is 2730 nM. In addition, the LC50 in the experiment on Coptotermes formosanus [12] was 0.04 g/m2. For the same compound, the minimum inhibitory concentration (MIC) against Fusarium solani was found to be 25 µg/mL (≈ 205 µM).
Turning to `CC(C)c1cccc(=O)c(O)c1` [HINOKITIOL], the mortality in the experiment on Coptotermes formosanus [18] is 20%; with Dermatophagoides farinae [19], 100%; in the experiment with Tyrophagus putrescentiae [20], 11.9%; with Dermatophagoides farinae [2], 96.3%; in the experiment with Dermatophagoides farinae [4] it was 100%; in the experiment with Tyrophagus putrescentiae [21], 55.5%. For the same compound, the mortality in the experiment on Dermatophagoides farinae [22] worked out at 100%; in the experiment on Coptotermes formosanus [23], 10%; in the experiment with Coptotermes formosanus [7], 40%; with Dermatophagoides farinae [24], 7.8%; in the experiment with Tyrophagus putrescentiae [25] it was 91.3%. On Carboxypeptidase A1, the midpoint of inhibition, the IC50, lay at 2760 nM. In addition, the LC50 with Coptotermes formosanus [12] came out at 0.08 g/m2. For the same compound, in the experiment with Fusarium solani, the MIC came out at 50 µg/mL (≈ 304 µM).
